Laboratory results reported in patent US20240156832A1, “METHODS OF METABOLIZING METOPIMAZINE AND ITS SALTS” (Neurogastrx, Inc., priority 2020, published 2024).

Experiments:
[1] = Rat PK study; type: in vivo, Sprague Dawley rats
Method: The pharmacokinetics of metopimazine (parent) and metopimazine acid (metabolite) were evaluated in male and female Sprague Dawley rats following a single oral dose of 45 mg/kg metopimazine (free base). Three animals per sex in each dose group were sampled at each timepoint after administration (0.25, 0.5, 1, 2, 4, 8, 12, and 24 hours). The rats (Rattus norvegicus) were obtained from Envigo RMS, Inc. (Indianapolis, IN) and were 2 months old. Animals were weighed prior to each dose administration for the purpose of dose calculation. Whole venous blood samples of approximately 0.5 mL were collected from a peripheral vein of animals for determination of exposure to metopimazine and metopimazine acid. Three animals per sex were sampled at each timepoint. Samples were collected in tubes containing K2EDTA with protease inhibitor cocktail (Sigma, #P8340, at ratio 1:100) and placed on ice until processed for plasma by centrifugation under refrigeration for at least ten minutes at 3000 rpm. After centrifugation, supernatant was removed and stored frozen in a −70° C. freezer until analyzed by LC-MS/MS.
(§1) An MRM LC-MS/MS method was developed for MPZ and metopimazine acid (MPZA) in rat, dog, and human plasma. The method was run in reverse phase in positive ion mode. […] D6-isotopically labeled internal standards were used for each analyte. The following m/z transitions were monitored: metopimazine 446.3→141.1 and metopimazine acid 447.2→142.1.
(§2) Noncompartmental Pharmacokinetics analysis was performed in Phoenix 64 Winnonlin version 8.1.

[2] = Dog PK study; type: in vivo, beagle dogs
Method: The pharmacokinetics of metopimazine (parent) and metopimazine acid (metabolite) were evaluated in three male, beagle dogs following a single oral dose of 10 mg/kg metopimazine (free base). The dogs were obtained from Marshall BioResources (North Rose, NY). Animals were weighed prior to each dose administration for the purpose of dose calculation. Metopimazine was administered in size 13 gelatin capsules. Whole venous blood samples of approximately 1.0 mL were collected from a peripheral vein of all animals for determination of metopimazine and metopimazine acid. Samples were collected at the following timepoints: 0.25, 0.5, 1, 2, 4, 8, 12, and 24 hours after test article administration. All animals were sampled at each timepoint. Samples were collected in tubes containing K2EDTA and placed on ice until processed for plasma by centrifugation under refrigeration for at least ten minutes at 3000 rpm. After centrifugation, supernatant was removed and stored frozen in a −70° C. freezer until analyzed by LC-MS/MS.
as §1, §2

[3] = system: rhFMO1, rhFMO3, and rhFMO5; assay: Incubation with recombinant FMO; type: in vitro ADME, human; conditions: 1 μM MPZ, pH 8.4
Method: Protein concentrations for all rFMO isoforms were 0.05 mg/mL. A positive control (benzydamine, 100 μM) was incubated for 20 minutes. […] All other procedures were the same as described previously. The negative control reactions were incubated absence of NADPH.

[4] = Incubation of MPZ in human liver S9; type: in vitro ADME
Method: Initial experiment was conducted with S9 fractions from liver and intestine to assess the role of liver and intestinal enzymes in the metabolism of MPZ. The reaction mixture contained 2.5 μM MPZ, pooled human liver or intestine S9 fraction (1 mg/mL S9 protein), 100 mM KPi buffer (pH 7.4). The reaction mixture was pre-incubated for 3-5 min at 37° C. in a humidified incubator filled with 5% CO2 followed by the addition of NADPH (1 mM) to initiate the reaction. The reaction was incubated for 0 and 60 min. The total percentage of organic solvent in incubation mixture was <0.1%. The reactions were terminated by the addition of sample mixture of acetonitrile and ethanol (90:10, v/v). The positive control substrate, 7-EC, was incubated in triplicate in an identical manner as MPZ for S9 fractions.

[5] = for Peak Area at Time 0 / Peak Area at Time 90 min: metopimazine incubation in human liver microsomes, full scan LC-MS
Method: For protein concentration optimization, MPZ at 1 μM was incubated with varying concentration of HLM proteins (0.1, 0.25, 0.5, and 1.0 mg/mL microsomal protein), 100 mM KPi buffer (pH 7.4). After pre-incubation for 3-5 minutes at 37° C., the reaction was initiated by the addition of NADPH (1 mM) for 60 minutes in triplicates.
For incubation time optimization, MPZ at 1 μM was incubated with pooled HLM (0.5 mg/mL microsomal protein) and 100 mM KPi buffer (pH 7.4). After pre-incubation for) for 3-5 minutes at 37° C., the reaction was initiated by the addition NADPH (1 mM) incubated for 0, 10, 20, 40, 60, and 90 minutes to determine the optimal incubation time (linear range). All metabolic reactions in this study were terminated by the addition of chilled organic solvent (acetonitrile:ethanol 90:10, v/v) containing internal standards, unless otherwise indicated.
LC separation conditions were developed for MPZ and its metabolites (MPZA and MPZS), 7 hydroxycoumarin, each metabolite of CYP probe substrate, benzydamine N oxide, and phthalazine. The LC MS/MS system consisted of a Shimadzu Nexera X2 LC-30 UPLC system (Shimadzu Corporation, Kyoto, Japan), and an API 4000 triple quadrupole mass spectrometer (SCIEX, Framingham, MA) was used for analysis. All analytes were analyzed using electrospray ionization (ESI) in positive ion mode except for 7-EC, which used negative ion mode. The LC-MS/MS system was controlled by Analyst software (version 1.6.1, SCIEX, Framingham, MA).
For each analytical method, a calibration curve was generated for the quantification of MPZ and its two metabolites (MPZA and MPZS). […] PAR was also used for all positive control compounds.
% parent remaining=(mean concentration or PAR at each sampling time point/mean concentration or PAR of time zero)×100

[6] = biological target: human D2 receptor (Homo sapiens, UniProt P14416); conditions: relative to MPZ; cited from earlier work
Sequence of human D2 receptor (P14416 whole entry): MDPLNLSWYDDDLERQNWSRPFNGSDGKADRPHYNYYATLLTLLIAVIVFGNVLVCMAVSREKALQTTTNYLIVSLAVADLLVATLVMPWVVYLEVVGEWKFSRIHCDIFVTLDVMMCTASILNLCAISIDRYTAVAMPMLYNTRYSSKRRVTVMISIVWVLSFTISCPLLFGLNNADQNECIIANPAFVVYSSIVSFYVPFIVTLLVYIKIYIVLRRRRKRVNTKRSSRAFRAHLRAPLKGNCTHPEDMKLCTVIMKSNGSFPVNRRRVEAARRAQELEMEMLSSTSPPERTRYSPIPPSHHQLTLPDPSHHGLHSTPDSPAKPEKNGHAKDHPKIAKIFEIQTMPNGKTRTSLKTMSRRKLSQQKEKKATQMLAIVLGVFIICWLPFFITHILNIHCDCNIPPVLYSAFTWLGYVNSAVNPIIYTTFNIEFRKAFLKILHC

[7] = female, Sprague Dawley, rat, in vivo, po, 45 mg/kg
[8] = male, Sprague Dawley, rat, in vivo, po, 45 mg/kg
[9] = male, beagle, dog, in vivo, po, 10 mg/kg

Row | SMILES | AUCinf [1, 7] [ng·h/mL] | Cmax [1, 7] [ng/mL] | Tmax [1, 7] [h] | AUCinf [1, 8] [ng·h/mL] | Cmax [1, 8] [ng/mL] | AUC(0-inf) [2, 9] [ng·h/mL] | Tmax [2, 9] [h] | metabolism of MPZ by recombinant FMO enzymes [3] | MPZ disappeared ([4]; human liver S9 1 mg/mL, 2.5 μM MPZ, NADPH, 60-minute incubation) | MPZ remaining ([5]; human, microsomes, 1 h, 1 μM, pH 7.4) [%] | Peak Area at Time 0 [5] | Peak Area at Time 90 min [5] | AUC(0-inf) [1, 7] [ng·h/mL] | MPZA metabolite to parent ratio compared with humans ([1]; rats) | MPZA metabolite to parent ratio compared with humans ([2]; dogs) | less potent at the human D2 receptor compared to the parent [6] | metabolites formed ([4]; human liver S9, 60-minute incubation)
1 | CS(=O)(=O)c1ccc2c(c1)N(CCCN1CCC(C(N)=O)CC1)c1ccccc1S2 [MPZ, metopimazine] | 13800 | 1730 | 4 | 8160 | 1080 | 3190 | 0.833 | did not metabolize MPZ | approximately 30% | 37.2 | 2373 | 715 |  |  |  |  | 
2 | CS(=O)(=O)c1ccc2c(c1)N(CCCN1CCC(C(=O)O)CC1)c1ccccc1S2 [MPZA, metopimazine acid] |  | 106 | 4 | 755 | 89 | 1030 |  |  |  |  | 0 | 208 | 944 | particularly lower in rats | far lower in dogs | about 200 fold | formed
